Reference: patent US20210343946A1, “INFRARED ABSORBERS, INFRARED ABSORBING/BLOCKING FILMS AND PHOTOELECTRIC DEVICES AND ORGANIC SENSORS AND ELECTRONIC DEVICES” (Samsung Electronics Co., Ltd., priority 2020, published 2021)

Assays:
[1] = Light absorption characteristics in a thin film state (UV-Vis-NIR spectrometer); format: physicochemical; details: thin film spin-coated from chloroform on glass substrate
Description: In addition, the compounds of Synthesis Examples 1 to 5 are respectively dissolved in chloroform and coated on a glass substrate at 800 rpm for 60 seconds and at 400 rpm for 5 seconds with a spin coater, and the light absorption characteristics thereof in a thin film state are evaluated. The light absorption characteristics are evaluated by measuring a maximum absorption wavelength (λmax) by using a UV-Vis-NIR spectrometer (UV-3600 Plus, Shimadzu Corp.).

[2] = Light absorption characteristics in a solution state (UV-Vis-NIR spectrometer); format: physicochemical; details: for UV-vis: λmax: CH2Cl2 Solution, in synthesis example; for λmax (nm) (solution): 1×10^−5 M
Description: The compounds according to Synthesis Examples 1 to 5 in dichloromethane, the compounds according to Comparative Synthesis Examples 1 and 2 in toluene, and the compound of Comparative Synthesis Example 3 in chloroform are respectively dissolved at a concentration of 1×10^−5 M to prepare solutions, and light absorption characteristics of the compounds in a solution state are evaluated. The light absorption characteristics are evaluated by using an UV-Vis-NIR spectrometer (UV-3600 Plus, Shimadzu Corp.) to measure a maximum absorption wavelength (λmax).

λmax (nm) (solution) ([2]; in toluene)	Structure (SMILES)	λmax (nm) (thin film) [1]	UV-vis: λmax [2]	λmax (nm) (solution) ([2]; in dichloromethane)
–	CCCCCCOc1cc(-c2c3c(c(-c4cc(OCCCCCC)c(-c5cc6c(s5)c5sc(CCCCCC)cc5n6CCCCCC)s4)c4n[se]nc24)N=[Se]=N3)sc1-c1cc2c(s1)c1sc(CCCCCC)cc1n2CCCCCC [Synthesis Example 5]	1285 nm	1376 nm	1376 nm
920 nm	CCCCCCCCOc1ccc(N(c2ccc(OCCCCCCCC)cc2)c2ccc(-c3ccc(-c4c5c(c(-c6ccc(-c7ccc(N(c8ccc(OCCCCCCCC)cc8)c8ccc(OCCCCCCCC)cc8)cc7)s6)c6nsnc46)N=S=N5)s3)cc2)cc1 [Comparative Synthesis Example 1, reference compound]	–	–	–
848 nm	CCCCCCCCC1(CCCCCCCC)c2ccccc2-c2ccc(-c3ccc(-c4c5c(c(-c6ccc(-c7ccc8c(c7)C(CCCCCCCC)(CCCCCCCC)c7ccccc7-8)s6)c6nsnc46)N=S=N5)s3)cc21 [Comparative Synthesis Example 2, reference compound]	–	–	–
–	CCCCCCOc1cc(-c2c3nsnc3c(-c3cc(OCCCCCC)c(-c4cc5c(s4)c4sc(CCCCCC)cc4n5CCCCCC)s3)c3nc4c5ncccc5c5cccnc5c4nc23)sc1-c1cc2c(s1)c1sc(CCCCCC)cc1n2CCCCCC [Synthesis Example 3]	1166 nm	1143 nm	1143 nm
–	CCCCCCOc1cc(-c2c3c(c(-c4cc(OCCCCCC)c(-c5cc6c(s5)c5sc(CCCCCC)cc5n6CCCCCC)s4)c4nsnc24)N=S=N3)sc1-c1cc2c(s1)c1sc(CCCCCC)cc1n2CCCCCC [Synthesis Example 2]	1120 nm	1114 nm	1076 nm
–	CCCCCCOc1cc(-c2c3nsnc3c(-c3cc(OCCCCCC)c(-c4cc5c(s4)c4sc(CCCCCC)cc4n5CCCCCC)s3)c3nc4c5ccccc5c5ccccc5c4nc23)sc1-c1cc2c(s1)c1sc(CCCCCC)cc1n2CCCCCC [Synthesis Example 4]	1058 nm	1020 nm	1020 nm
–	CCCCCCOc1cc(-c2c3c(c(-c4cc(OCCCCCC)c(-c5cc6c(s5)c5sc(CCCCCC)cc5n6CCCCCC)s4)c4nsnc24)N=[Se]=N3)sc1-c1cc2c(s1)c1sc(CCCCCC)cc1n2CCCCCC [Synthesis Example 1]	1226 nm	1256 nm	1256 nm
